Data taken from PubChem BioAssay AID2060613 (Molecular Pharmacology Branch, DTP, NCI, 2025).

Tested on: 233499-124-R-J3-PDC complex spheroid viability
Test: Anticancer human tumor 233499-124-R-J3-PDC patient-derived colon adenocarcinoma cell line growth inhibition [CLK]
Conditions: for IC50: curve of first compound; for viability, T/C: stronger effect = lower value
Outline: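 Multi-cell-type spheroids combined patient-derived tumor cells with HUVEC endothelial cells and human mesenchymal stem cells. Paired agents were dosed in half-log steps down from about clinical Cmax, or from 10 microM where Cmax was unknown.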

[1] = second compound 0.0316 µM, first compound 0.0316 µM
[2] = second compound 0.0316 µM, first compound 0.1 µM
[3] = second compound 0.0316 µM, first compound 0.316 µM
[4] = second compound 0.0316 µM, first compound 1 µM
[5] = second compound 0.1 µM, first compound 0.0316 µM
[6] = second compound 0.1 µM, first compound 0.1 µM
[7] = second compound 0.1 µM, first compound 0.316 µM
[8] = second compound 0.1 µM, first compound 1 µM
[9] = second compound 0.316 µM, first compound 0.0316 µM
[10] = second compound 0.316 µM, first compound 0.1 µM
[11] = second compound 0.316 µM, first compound 0.316 µM
[12] = second compound 0.316 µM, first compound 1 µM
[13] = second compound 1 µM, first compound 0.0316 µM
[14] = second compound 1 µM, first compound 0.1 µM
[15] = second compound 1 µM, first compound 0.316 µM
[16] = second compound 1 µM, first compound 1 µM
[17] = second compound 3.16 µM, first compound 0.0316 µM
[18] = second compound 3.16 µM, first compound 0.1 µM
[19] = second compound 3.16 µM, first compound 0.316 µM
[20] = second compound 3.16 µM, first compound 1 µM
[21] = second compound 10 µM, first compound 0.0316 µM
[22] = second compound 10 µM, first compound 0.1 µM
[23] = second compound 10 µM, first compound 0.316 µM
[24] = second compound 10 µM, first compound 1 µM
[25] = second compound 0.0316 µM, first compound 0.00316 µM
[26] = second compound 0.0316 µM, first compound 0.01 µM
[27] = second compound 0.1 µM, first compound 0.00316 µM
[28] = second compound 0.1 µM, first compound 0.01 µM
[29] = second compound 0.316 µM, first compound 0.00316 µM
[30] = second compound 0.316 µM, first compound 0.01 µM
[31] = second compound 1 µM, first compound 0.00316 µM
[32] = second compound 1 µM, first compound 0.01 µM
[33] = second compound 3.16 µM, first compound 0.00316 µM
[34] = second compound 3.16 µM, first compound 0.01 µM
[35] = second compound 10 µM, first compound 0.00316 µM
[36] = second compound 10 µM, first compound 0.01 µM
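Further: spheroids exposed to the drug combinations for seven days.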
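Wherever viability, T/C is given: percent viability relative to DMSO vehicle control wells taken as 100%.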

**Q.** Which IC50 (second compound 0.0316 µM) does the source give for `CC(Nc1ccc2c(c1)OCCn1cc(N3C(=O)OCC3C(F)F)nc1-2)C(N)=O` (stereo unspecified) + CNC(=O)c1ccc(Nc2nc(OC3CCCC3)c3c(-c4ccc5nc(C)oc5c4)c[nH]c3n2)c(OC)c1 here?
**A.** > 10 µM

**Q.** And the IC50 (second compound 0.1 µM)?
**A.** 3.88 µM

**Q.** What about the IC50 (second compound 0.316 µM) of the same compound?
**A.** 2.81 µM

**Q.** What about the IC50 (second compound 1 µM) of the same compound?
**A.** 0.316 µM

**Q.** And the IC50 (second compound 3.16 µM)?
**A.** 0.624 µM

**Q.** What about the IC50 (second compound 10 µM) of the same compound?
**A.** 1.08 µM

**Q.** And the viability, T/C [1]?
**A.** 85.3%

**Q.** And the viability, T/C [2]?
**A.** 94.6%

**Q.** What about the viability, T/C [3] of the same compound?
**A.** 81%

**Q.** And the viability, T/C [4]?
**A.** 72.7%

**Q.** And the viability, T/C (second compound 0.0316 µM, first compound 3.16 µM)?
**A.** 65.5%

**Q.** And the viability, T/C (second compound 0.0316 µM, first compound 10 µM)?
**A.** 53.6%

**Q.** And the viability, T/C [5]?
**A.** 68.9%

**Q.** What about the viability, T/C [6] of the same compound?
**A.** 75.1%

**Q.** And the viability, T/C [7]?
**A.** 72.2%

**Q.** What about the viability, T/C [8] of the same compound?
**A.** 64.8%

**Q.** What about the viability, T/C (second compound 0.1 µM, first compound 3.16 µM) of the same compound?
**A.** 52.9%

**Q.** What about the viability, T/C (second compound 0.1 µM, first compound 10 µM) of the same compound?
**A.** 38.6%

**Q.** And the viability, T/C [9]?
**A.** 66.9%

**Q.** And the viability, T/C [10]?
**A.** 65.7%

**Q.** What about the viability, T/C [11] of the same compound?
**A.** 72.2%

**Q.** And the viability, T/C [12]?
**A.** 58.4%

**Q.** And the viability, T/C (second compound 0.316 µM, first compound 3.16 µM)?
**A.** 49.6%

**Q.** What about the viability, T/C (second compound 0.316 µM, first compound 10 µM) of the same compound?
**A.** 32.5%

**Q.** What about the viability, T/C [13] of the same compound?
**A.** 74.8%

**Q.** And the viability, T/C [14]?
**A.** 74.9%

**Q.** What about the viability, T/C [15] of the same compound?
**A.** 50%

**Q.** And the viability, T/C [16]?
**A.** 42.7%

**Q.** And the viability, T/C (second compound 1 µM, first compound 3.16 µM)?
**A.** 45.9%

**Q.** And the viability, T/C (second compound 1 µM, first compound 10 µM)?
**A.** 42.4%

**Q.** What about the viability, T/C [17] of the same compound?
**A.** 61.3%

**Q.** What about the viability, T/C [18] of the same compound?
**A.** 63.6%

**Q.** And the viability, T/C [19]?
**A.** 56.4%

**Q.** What about the viability, T/C [20] of the same compound?
**A.** 41.1%

**Q.** And the viability, T/C (second compound 3.16 µM, first compound 3.16 µM)?
**A.** 42.3%

**Q.** And the viability, T/C (second compound 3.16 µM, first compound 10 µM)?
**A.** 37%

**Q.** And the viability, T/C [21]?
**A.** 60.8%

**Q.** And the viability, T/C [22]?
**A.** 55.9%

**Q.** What about the viability, T/C [23] of the same compound?
**A.** 68.1%

**Q.** And the viability, T/C [24]?
**A.** 44.8%

**Q.** And the viability, T/C (second compound 10 µM, first compound 3.16 µM)?
**A.** 39%

**Q.** And the viability, T/C (second compound 10 µM, first compound 10 µM)?
**A.** 22.2%

**Q.** What does the source list for `CCN1CCN(Cc2ccc(Nc3ncc(F)c(-c4cc(F)c5nc(C)n(C(C)C)c5c4)n3)nc2)CC1` + CNC(=O)c1ccc(Nc2nc(OC3CCCC3)c3c(-c4ccc5nc(C)oc5c4)c[nH]c3n2)c(OC)c1?
**A.** IC50 (second compound 0.0316 µM): > 1 µM; IC50 (second compound 0.1 µM): > 1 µM; IC50 (second compound 0.316 µM): > 1 µM; IC50 (second compound 1 µM): 0.971 µM; IC50 (second compound 3.16 µM): > 1 µM; IC50 (second compound 10 µM): > 1 µM; viability, T/C [25]: 88.3%; viability, T/C [26]: 98.3%; viability, T/C [1]: 90%; viability, T/C [2]: 106%; viability, T/C [3]: 102%; viability, T/C [4]: 70.1%; viability, T/C [27]: 71.7%; viability, T/C [28]: 91.6%; viability, T/C [5]: 84.8%; viability, T/C [6]: 83.8%; viability, T/C [7]: 89.3%; viability, T/C [8]: 64%; viability, T/C [29]: 68.8%; viability, T/C [30]: 84.3%; viability, T/C [9]: 78%; viability, T/C [10]: 94.2%; viability, T/C [11]: 62.7%; viability, T/C [12]: 53.1%; viability, T/C [31]: 77.2%; viability, T/C [32]: 85.9%; viability, T/C [13]: 74.3%; viability, T/C [14]: 85.3%; viability, T/C [15]: 84.5%; viability, T/C [16]: 49.2%; viability, T/C [33]: 81.1%; viability, T/C [34]: 75.2%; viability, T/C [17]: 78.1%; viability, T/C [18]: 78.7%; viability, T/C [19]: 97.2%; viability, T/C [20]: 57.6%; viability, T/C [35]: 76.4%; viability, T/C [36]: 80.9%; viability, T/C [21]: 66.8%; viability, T/C [22]: 74.5%; viability, T/C [23]: 60.1%; viability, T/C [24]: 51.1%

**Q.** `COc1c(OCCCN2CCOCC2)ccc2c3n(c(=NC(=O)c4cnc(N)nc4)nc12)CCN3` + CNC(=O)c1ccc(Nc2nc(OC3CCCC3)c3c(-c4ccc5nc(C)oc5c4)c[nH]c3n2)c(OC)c1 was tested. Which IC50 (second compound 0.0316 µM) did it give?
**A.** 0.172 µM

**Q.** And the IC50 (second compound 0.1 µM)?
**A.** 0.111 µM

**Q.** And the IC50 (second compound 0.316 µM)?
**A.** 0.0885 µM

**Q.** What about the IC50 (second compound 1 µM) of the same compound?
**A.** 0.0259 µM

**Q.** What about the IC50 (second compound 3.16 µM) of the same compound?
**A.** 0.0417 µM

**Q.** What about the IC50 (second compound 10 µM) of the same compound?
**A.** 0.0272 µM

**Q.** And the viability, T/C [25]?
**A.** 90%

**Q.** What about the viability, T/C [26] of the same compound?
**A.** 91%

**Q.** What about the viability, T/C [1] of the same compound?
**A.** 81.6%

**Q.** And the viability, T/C [2]?
**A.** 65.3%

**Q.** And the viability, T/C [3]?
**A.** 33.2%

**Q.** What about the viability, T/C [4] of the same compound?
**A.** 5.74%

**Q.** What about the viability, T/C [27] of the same compound?
**A.** 70.5%

**Q.** What about the viability, T/C [28] of the same compound?
**A.** 85.4%

**Q.** And the viability, T/C [5]?
**A.** 73.2%

**Q.** And the viability, T/C [6]?
**A.** 53.4%

**Q.** And the viability, T/C [7]?
**A.** 16.1%

**Q.** And the viability, T/C [8]?
**A.** 3.37%

**Q.** What about the viability, T/C [29] of the same compound?
**A.** 75.3%

**Q.** And the viability, T/C [30]?
**A.** 81.8%

**Q.** What about the viability, T/C [9] of the same compound?
**A.** 68.8%

**Q.** And the viability, T/C [10]?
**A.** 45.7%

**Q.** And the viability, T/C [11]?
**A.** 22.6%

**Q.** And the viability, T/C [12]?
**A.** 3.62%

**Q.** And the viability, T/C [31]?
**A.** 73.5%

**Q.** What about the viability, T/C [32] of the same compound?
**A.** 59.4%

**Q.** And the viability, T/C [13]?
**A.** 49%

**Q.** And the viability, T/C [14]?
**A.** 31.6%

**Q.** And the viability, T/C [15]?
**A.** 23%

**Q.** What about the viability, T/C [16] of the same compound?
**A.** 3.52%

**Q.** What about the viability, T/C [33] of the same compound?
**A.** 62.9%

**Q.** What about the viability, T/C [34] of the same compound?
**A.** 68.1%

**Q.** What about the viability, T/C [17] of the same compound?
**A.** 50%

**Q.** And the viability, T/C [18]?
**A.** 38.8%

**Q.** And the viability, T/C [19]?
**A.** 15.3%

**Q.** What about the viability, T/C [20] of the same compound?
**A.** 2.16%

**Q.** And the viability, T/C [35]?
**A.** 75.1%

**Q.** What about the viability, T/C [36] of the same compound?
**A.** 65.9%

**Q.** What about the viability, T/C [21] of the same compound?
**A.** 45.5%

**Q.** What about the viability, T/C [22] of the same compound?
**A.** 31%

**Q.** And the viability, T/C [23]?
**A.** 10.5%

**Q.** What about the viability, T/C [24] of the same compound?
**A.** 2.07%
